This is an account of results in PubChem BioAssay AID1996.

Converted amounts (≈) assume the structure as drawn.

For this data set the following is noted: buffer; pH 7.4; 200.0 µM.
`Cc1ccc[n+](CC(=O)Nc2cccc(Cl)c2)c1.[Cl-]`: the solubility (kinetic) was above 44.6 µg/mL.
The value for `Brc1ccc(-c2nc(-c3ccncc3)no2)cc1` was below 0.2 µg/mL.
With `Cc1cc(C)cc(NC(=O)NCc2c(-c3ccccc3)noc2C)c1`, the solubility (kinetic) amounted to 0.8 µg/mL (≈ 2.39 µM).
The value for `CN(CC(=O)Nc1ccc2c(c1)OCCO2)CC(=O)Nc1ccc(F)c(F)c1F` was above 61.4 µg/mL; that for `CN(C(=O)c1ccnn1C)C1CCCN(Cc2ccccc2F)C1` (stereo not drawn) was above 49.6 µg/mL.
`Cn1c(=O)c(C=Nc2ccccc2)c(O)c2ccccc21`: the solubility (kinetic) was determined as 11.2 µg/mL (≈ 40.2 µM).
The value for `O=C(NCc1ccccc1Cl)c1cnccc1C(F)(F)F` was above 47.2 µg/mL.
The result for `O=C(O)c1ccc(NC(=O)C2(c3ccccc3)CCCC2)cc1` reads above 46.4 µg/mL.
`O=C(NCCOC(=O)c1ccccc1)c1ccccc1` showed a kinetic solubility above 40.4 µg/mL.
The value for `COc1ccc(NC(=O)CNCc2ccc(Cl)cc2)cc1S(=O)(=O)N1CCOCC1.O=C(O)C(=O)O` was above 81.6 µg/mL; that for `Cc1c(NC(=O)c2cc(S(=O)(=O)N3CCCCC3)ccc2Cl)c(=O)n(-c2ccccc2)n1C` was above 73.3 µg/mL; that for `COc1ccc(S(=O)(=O)NC(C)C(=O)N2CCCC2)cc1Cl` (stereo not drawn) was 47 µg/mL (≈ 136 µM).
The result for `CCCCNc1c(N)n(CCC)c(=O)[nH]c1=O` reads above 36 µg/mL; that for `CN(C)/C=C/C(=O)c1cnc(-c2ccccn2)s1`, above 38.9 µg/mL.
The molecule `Cc1ccc2[nH]c(C(=O)NCCN3CCCC3)cc2c1.Cl` showed a solubility (kinetic) above 46.2 µg/mL.
The result for `O=c1c2ccccc2nc(/C=C/c2cccnc2)n1CCc1ccccc1` reads 22.1 µg/mL (≈ 62.5 µM).
Take `COc1ccc(CCNC(=O)CCc2ccccc2)cc1OC`: the solubility (kinetic) is above 47 µg/mL.
The value for `O=S(=O)(/C=C/c1ccccc1)N1CCc2ccccc2C1` was below 0.6 µg/mL; that for `O=[N+]([O-])c1ccc(S(=O)(=O)Nc2ncccn2)cc1` was above 42 µg/mL.
The result for `Cc1c(Cc2ccc3c(c2)OCO3)sc(NC(=O)C2CC2)c1C(N)=O` reads 1.8 µg/mL (≈ 5.02 µM); that for `Cc1ccc(NCc2ccc(O)c3ncccc23)cc1C`, 3.6 µg/mL (≈ 12.9 µM).
The value for `O=C(NCCCn1ccnc1)c1cccc(Br)c1` was 46.2 µg/mL (≈ 150 µM); that for `COc1ccccc1NC(=O)N1CCN(c2ccnc3cc(Cl)ccc23)CC1` was 18.5 µg/mL (≈ 46.6 µM).
Consider `O=C(CCl)Nc1nccs1`, for which the kinetic solubility is above 26.5 µg/mL.
The result for `COc1ccc(-c2csc(NC(=O)c3ccc(C(C)(C)C)cc3)c2C(=O)O)cc1` reads above 61.4 µg/mL; that for `CN(C)S(=O)(=O)Nc1cccc(-c2cn3c(n2)SCC3)c1`, above 48.7 µg/mL; that for `COc1ccc(N2CCN(CC(=O)c3ccccc3)CC2)cc1`, above 46.6 µg/mL.
Take `Cn1c(=S)[nH]c2c(c1=O)C(C)(C)Cc1ccccc1-2`: the solubility (kinetic) came out at 3 µg/mL (≈ 11 µM).
On to `O=C(COc1ccccc1)Nc1ccc2[nH]c(=O)[nH]c2c1`, for which the solubility (kinetic) turned out to be 36.9 µg/mL (≈ 130 µM).
The value for `CCN1CCCC1CNC(=O)C(=O)Nc1ccccc1` (stereo not drawn) was above 41.3 µg/mL; that for `O=C(c1cc2cc(F)ccc2[nH]1)N1CCN(c2cccc(Cl)c2)CC1` was 0.5 µg/mL (≈ 1.4 µM).
The value for `O=C(NC1CCCC1)c1c(O)nc2sccn2c1=O` was above 41.9 µg/mL.
The value for `CN(CC(=O)NCc1ccco1)S(=O)(=O)c1ccc(F)cc1` was above 49 µg/mL; that for `Cc1cccc(NC(=O)Cn2c(=O)oc3ccccc32)c1C` was 6.6 µg/mL (≈ 22.3 µM).
In turn, `N#C/C(N)=C(/C#N)N=Cc1cccc(Cl)c1` returned a kinetic solubility of 4 µg/mL (≈ 17.3 µM).
The result for `CN(Cc1nc(-c2cccc(Cl)c2)no1)C1CCOCC1` reads 36.9 µg/mL (≈ 120 µM); that for `COc1ccc(C(=O)NCCNC(=O)c2cnccn2)cc1`, 37.1 µg/mL (≈ 124 µM); that for `CC(C)OC(=O)CSc1nc(Cc2ccccc2)nc2ccccc12`, below 0.4 µg/mL.
On to `O=C(COC(=O)c1ccco1)Nc1cc(S(=O)(=O)N2CCOCC2)ccc1Cl`, for which the solubility (kinetic) stood at 16.4 µg/mL (≈ 38.2 µM).
The value for `CN(C)CC/C=C1\c2ccccc2Sc2cc(F)c(Cl)cc21.Cl` was 43 µg/mL.
The result for `COc1cc2c(cc1OC)C(c1ccc(Br)cc1)NC(=O)C2` (stereo not drawn) reads 45.2 µg/mL (≈ 125 µM); that for `Cc1ccc2ncnc(Oc3ncccc3[N+](=O)[O-])c2c1`, 34.7 µg/mL (≈ 123 µM); that for `Cc1cc(OC(=O)c2ccccc2F)c([N+](=O)[O-])c(=O)[nH]1`, above 43.8 µg/mL.
The result for `Cc1c(Cl)cccc1NC(=O)C1CC2CCC1C2` (stereo not drawn) reads 1.5 µg/mL (≈ 5.69 µM); that for `O=C(CCn1c(=O)oc2ccccc21)Nc1ccc(C(=O)O)cc1`, above 48.9 µg/mL.
The molecule `CCCNC(=O)C(=O)Nc1cc2c3c(c1)CCC(=O)N3CCC2` gave a solubility (kinetic) above 47.3 µg/mL.
On to `CCN1CCCC1CNC(=O)C(=O)NC` (stereo not drawn), for which the solubility (kinetic) is above 32 µg/mL.
The value for `CCCN(CC(=O)Nc1ccccc1OC)C(=O)c1ccncc1` was above 49.1 µg/mL; that for `CCOC(=O)N1CCN(CCC(=O)Nc2ccc(F)c(F)c2)CC1` was above 51.2 µg/mL; that for `CCC(=O)OCCNc1nc(-c2ccccc2)nc2ccccc12.Cl` was 5.3 µg/mL.
Consider `O=C(NCCCO)C(=O)c1c(-c2ccccc2)cc2ccccn12`, for which the kinetic solubility was above 48.4 µg/mL.
The value for `CCOC(=O)c1nc2ccccc2c(C)c1C.Cl` was 25.3 µg/mL; that for `CC1CN(C(=S)Nc2ccc(S(N)(=O)=O)cc2)CC(C)O1` (stereo not drawn) was above 49.4 µg/mL; that for `Cc1ccc(NCC(=O)N/N=C/c2ccc(C(=O)O)cc2)cc1` was above 46.7 µg/mL.
The result for `O=C(O)c1ccccn1` reads above 18.5 µg/mL; that for `COc1ccc2nc(/N=C/c3cccc(OC)c3O)sc2c1`, above 47.2 µg/mL.
The molecule `O=C(Nc1ccccc1C(=O)N1CCCCCC1)c1ccccc1` came in with a kinetic solubility above 48.4 µg/mL.
The result for `CNC(=S)N1CCn2cccc2C1c1cc(OC)c(OC)c(OC)c1` (stereo not drawn) reads above 54.2 µg/mL; that for `COC(=O)Cc1ccc(NC(=S)N2CCC(Cc3ccccc3)CC2)cc1`, 6.5 µg/mL (≈ 17 µM).
The result for `CCOc1ccc(Nc2nc3c(C)cccc3cc2C#N)cc1` reads below 0.2 µg/mL; that for `O=C(C1CCCN1S(=O)(=O)c1ccc(Cl)cc1)N1CCN(c2ccccc2)CC1` (stereo not drawn), 15.3 µg/mL (≈ 35.3 µM).
Consider `COc1cc(N2Cc3ccccc3C2)ccc1C=O`, for which the kinetic solubility turned out to be 1.8 µg/mL (≈ 7.11 µM).
As for `O=C1CC(N2CCOCC2)C(=O)N1c1ccc(Cl)cc1` (stereo not drawn), the solubility (kinetic) was above 44.2 µg/mL.
The value for `CCOc1cc(/C=C\c2nc(O)c([N+](=O)[O-])c(=O)[nH]2)ccc1OC(C)C` was above 54.2 µg/mL; that for `CC(Sc1ccc2ccccc2c1)C(=O)NC(N)=O` (stereo not drawn) was 8.6 µg/mL (≈ 31.3 µM); that for `COc1ccccc1NC(=O)COC(=O)/C=C/c1ccc(OC)c(OC)c1` was 4.1 µg/mL (≈ 11 µM).
For `NC(=O)c1nc(-c2ccccc2)c(-c2ccccc2)[nH]c1=O`, the kinetic solubility was above 43.7 µg/mL.
The value for `CCN(Cc1ccncc1)C(=O)C(CO)c1ccccc1` (stereo not drawn) was above 42.7 µg/mL; that for `CC(C)(C)C(=O)Nc1ccc(-c2cnco2)cc1` was above 36.6 µg/mL.
The value for `COc1ccc(CCNC(=O)COC(=O)c2cc(S(=O)(=O)N3CCOCC3)ccc2C)cc1OC` was above 76 µg/mL.
The value for `O=C(CCN1C(=O)C2CC=CCC2C1=O)NC1CCCCC1` (stereo not drawn) was above 45.7 µg/mL; that for `N[C@@H](Cc1c[nH]c2ccc(O)cc12)C(=O)O` was 32.6 µg/mL (≈ 148 µM); that for `NC(=O)C1CCN(C(=O)c2ccccc2CCc2ccccc2)CC1` was above 50.5 µg/mL.

The solubility (kinetic) is solubility judged after dilution from a stock solution rather than from solid.
